Measurements as given in ChEMBL document CHEMBL5678818, “Discovery of potent SOS1 inhibitors that block RAS activation via disruption of the RAS-SOS1 interaction” (Proc Natl Acad Sci U S A, 2019).

Legend:
[1] = tested on: Receptor-type tyrosine-protein kinase FLT3 (Homo sapiens), P36888 [D835V]; assay: Inhibition of FLT3 D835V mutant (unknown origin) assessed as residual activity at 1000 nM by KINOMEscan analysis relative to control
[2] = molecular target: Mitogen-activated protein kinase kinase kinase 20 (Homo sapiens) (UniProt Q9NYL2); assay: Inhibition of ZAK (unknown origin) assessed as residual activity at 100 nM by KINOMEscan analysis relative to control
[3] = molecular target: T1, Mitogen-activated protein kinase kinase kinase 3 (Homo sapiens) (UniProt Q99759); assay: Inhibition of MAP3K3 (unknown origin) assessed as residual activity at 100 nM by KINOMEscan analysis relative to control
T1 sequence (whole entry): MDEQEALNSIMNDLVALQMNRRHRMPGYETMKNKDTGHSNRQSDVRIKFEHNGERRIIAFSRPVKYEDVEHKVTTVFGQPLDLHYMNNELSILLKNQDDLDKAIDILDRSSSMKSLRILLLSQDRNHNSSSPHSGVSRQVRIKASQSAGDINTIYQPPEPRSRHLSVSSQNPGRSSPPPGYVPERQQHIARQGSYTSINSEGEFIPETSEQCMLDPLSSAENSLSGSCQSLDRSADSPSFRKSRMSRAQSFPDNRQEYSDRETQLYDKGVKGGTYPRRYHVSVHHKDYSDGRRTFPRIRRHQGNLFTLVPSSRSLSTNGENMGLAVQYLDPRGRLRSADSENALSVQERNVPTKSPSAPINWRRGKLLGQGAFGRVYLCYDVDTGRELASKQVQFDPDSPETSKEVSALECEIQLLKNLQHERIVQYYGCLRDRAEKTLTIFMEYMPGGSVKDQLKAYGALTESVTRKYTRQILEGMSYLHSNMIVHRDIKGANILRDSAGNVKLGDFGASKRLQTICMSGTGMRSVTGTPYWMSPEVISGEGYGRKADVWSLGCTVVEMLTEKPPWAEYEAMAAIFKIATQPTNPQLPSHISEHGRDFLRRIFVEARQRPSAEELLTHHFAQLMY

[4] = molecular target: Fibroblast growth factor receptor 1 (Homo sapiens) (UniProt P11362); assay: Inhibition of FGFR1 (unknown origin) assessed as residual activity at 100 nM by KINOMEscan analysis relative to control
[5] = molecular target: Mitogen-activated protein kinase kinase kinase 12 (Homo sapiens) (UniProt Q12852); assay: Inhibition of DLK (unknown origin) assessed as residual activity at 100 nM by KINOMEscan analysis relative to control
[6] = molecular target: Serine/threonine-protein kinase 32A (Homo sapiens) (UniProt Q8WU08); assay: Inhibition of YANK1 (unknown origin) assessed as residual activity at 100 nM by KINOMEscan analysis relative to control
[7] = molecular target: Phosphorylase b kinase gamma catalytic chain, skeletal muscle/heart isoform (Homo sapiens) (UniProt Q16816); assay: Inhibition of PHKG1 (unknown origin) assessed as residual activity at 100 nM by KINOMEscan analysis relative to control
[8] = molecular target: Cyclin-dependent kinase 5 (Homo sapiens) (UniProt Q00535); assay: Inhibition of CDK5 (unknown origin) assessed as residual activity at 100 nM by KINOMEscan analysis relative to control
[9] = molecular target: BDNF/NT-3 growth factors receptor (Homo sapiens) (UniProt Q16620); assay: Inhibition of TRKB (unknown origin) assessed as residual activity at 100 nM by KINOMEscan analysis relative to control
[10] = molecular target: T2, Dual specificity mitogen-activated protein kinase kinase 4 (Homo sapiens) (UniProt P45985); assay: Inhibition of MEK4 (unknown origin) assessed as residual activity at 100 nM by KINOMEscan analysis relative to control
T2 sequence (whole entry): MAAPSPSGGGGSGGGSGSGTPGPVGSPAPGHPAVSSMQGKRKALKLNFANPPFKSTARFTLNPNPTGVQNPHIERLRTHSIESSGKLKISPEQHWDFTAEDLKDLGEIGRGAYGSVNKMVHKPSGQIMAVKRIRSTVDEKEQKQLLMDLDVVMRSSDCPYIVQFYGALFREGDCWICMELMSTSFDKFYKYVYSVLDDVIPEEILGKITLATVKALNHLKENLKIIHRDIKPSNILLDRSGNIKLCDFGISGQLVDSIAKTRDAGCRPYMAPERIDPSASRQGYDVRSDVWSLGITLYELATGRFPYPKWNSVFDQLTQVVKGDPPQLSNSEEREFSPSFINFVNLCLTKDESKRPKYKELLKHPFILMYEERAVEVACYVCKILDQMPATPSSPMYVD

[11] = molecular target: T3, Serine/threonine-protein kinase Nek11 (Homo sapiens) (UniProt Q8NG66); assay: Inhibition of NEK11 (unknown origin) assessed as residual activity at 100 nM by KINOMEscan analysis relative to control
T3 sequence (whole entry): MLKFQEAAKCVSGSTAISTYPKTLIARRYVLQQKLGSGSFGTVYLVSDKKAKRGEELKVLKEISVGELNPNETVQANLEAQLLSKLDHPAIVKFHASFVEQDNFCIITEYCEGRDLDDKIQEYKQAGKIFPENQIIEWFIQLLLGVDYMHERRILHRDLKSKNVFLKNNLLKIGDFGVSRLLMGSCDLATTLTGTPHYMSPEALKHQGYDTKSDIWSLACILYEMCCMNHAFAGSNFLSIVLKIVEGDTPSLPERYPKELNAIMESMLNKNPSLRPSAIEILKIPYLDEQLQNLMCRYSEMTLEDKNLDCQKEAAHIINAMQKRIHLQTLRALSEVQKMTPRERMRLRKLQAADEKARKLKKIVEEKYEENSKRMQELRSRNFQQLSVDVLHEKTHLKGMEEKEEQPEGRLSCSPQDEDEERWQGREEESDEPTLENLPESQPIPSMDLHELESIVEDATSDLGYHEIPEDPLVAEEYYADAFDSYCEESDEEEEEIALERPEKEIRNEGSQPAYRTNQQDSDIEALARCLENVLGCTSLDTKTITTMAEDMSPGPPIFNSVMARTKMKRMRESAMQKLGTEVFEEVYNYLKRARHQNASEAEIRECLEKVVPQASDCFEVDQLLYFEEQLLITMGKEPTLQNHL

[12] = molecular target: Atypical kinase COQ8A, mitochondrial (Homo sapiens) (UniProt Q8NI60); assay: Inhibition of ADCK3 (unknown origin) assessed as residual activity at 100 nM by KINOMEscan analysis relative to control
[13] = molecular target: Ribosomal protein S6 kinase alpha-3 (Homo sapiens) (UniProt P51812); assay: Inhibition of C-terminal RSK2 kinetic domain 2 (unknown origin) assessed as residual activity at 100 nM by KINOMEscan analysis relative to control
[14] = molecular target: NT-3 growth factor receptor (Homo sapiens) (UniProt Q16288); assay: Inhibition of TRKC (unknown origin) assessed as residual activity at 100 nM by KINOMEscan analysis relative to control
NT-3 growth factor receptor (Homo sapiens), sequence (Q16288 32-839 limits assumed): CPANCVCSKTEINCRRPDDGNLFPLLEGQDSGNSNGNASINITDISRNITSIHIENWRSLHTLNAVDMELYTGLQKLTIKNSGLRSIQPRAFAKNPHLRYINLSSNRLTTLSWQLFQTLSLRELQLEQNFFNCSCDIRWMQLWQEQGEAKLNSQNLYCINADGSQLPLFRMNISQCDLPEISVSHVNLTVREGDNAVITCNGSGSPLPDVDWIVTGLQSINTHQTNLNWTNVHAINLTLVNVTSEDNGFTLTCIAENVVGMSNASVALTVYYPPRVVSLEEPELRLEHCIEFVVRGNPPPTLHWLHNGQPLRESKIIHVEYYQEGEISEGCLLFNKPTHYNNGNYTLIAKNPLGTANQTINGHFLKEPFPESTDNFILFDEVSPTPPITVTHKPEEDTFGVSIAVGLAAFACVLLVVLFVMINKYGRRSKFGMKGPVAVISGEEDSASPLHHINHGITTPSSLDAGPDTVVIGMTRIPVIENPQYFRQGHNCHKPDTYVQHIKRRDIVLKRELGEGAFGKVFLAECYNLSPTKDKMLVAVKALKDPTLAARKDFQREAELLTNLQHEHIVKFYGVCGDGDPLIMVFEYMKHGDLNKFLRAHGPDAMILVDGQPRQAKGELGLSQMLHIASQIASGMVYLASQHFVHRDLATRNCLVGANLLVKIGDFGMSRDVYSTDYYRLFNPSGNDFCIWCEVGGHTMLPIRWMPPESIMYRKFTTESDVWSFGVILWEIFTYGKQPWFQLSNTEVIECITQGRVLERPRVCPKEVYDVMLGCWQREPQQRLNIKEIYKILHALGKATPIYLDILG

Phosphorylase b kinase gamma catalytic chain, skeletal muscle/heart isoform (Homo sapiens), sequence (Q16816 whole entry, looked up, canonical isoform): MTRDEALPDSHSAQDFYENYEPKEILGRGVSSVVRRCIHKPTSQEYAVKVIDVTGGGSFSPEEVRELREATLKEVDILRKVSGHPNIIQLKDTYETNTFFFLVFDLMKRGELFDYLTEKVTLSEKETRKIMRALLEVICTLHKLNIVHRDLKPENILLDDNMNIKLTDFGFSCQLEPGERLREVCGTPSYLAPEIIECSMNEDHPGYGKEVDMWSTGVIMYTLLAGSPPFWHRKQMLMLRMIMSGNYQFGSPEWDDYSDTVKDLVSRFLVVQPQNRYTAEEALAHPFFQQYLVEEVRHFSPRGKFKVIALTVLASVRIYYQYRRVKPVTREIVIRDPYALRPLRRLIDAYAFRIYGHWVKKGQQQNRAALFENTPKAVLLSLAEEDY
Mitogen-activated protein kinase kinase kinase 12 (Homo sapiens), sequence (Q12852 whole entry, looked up): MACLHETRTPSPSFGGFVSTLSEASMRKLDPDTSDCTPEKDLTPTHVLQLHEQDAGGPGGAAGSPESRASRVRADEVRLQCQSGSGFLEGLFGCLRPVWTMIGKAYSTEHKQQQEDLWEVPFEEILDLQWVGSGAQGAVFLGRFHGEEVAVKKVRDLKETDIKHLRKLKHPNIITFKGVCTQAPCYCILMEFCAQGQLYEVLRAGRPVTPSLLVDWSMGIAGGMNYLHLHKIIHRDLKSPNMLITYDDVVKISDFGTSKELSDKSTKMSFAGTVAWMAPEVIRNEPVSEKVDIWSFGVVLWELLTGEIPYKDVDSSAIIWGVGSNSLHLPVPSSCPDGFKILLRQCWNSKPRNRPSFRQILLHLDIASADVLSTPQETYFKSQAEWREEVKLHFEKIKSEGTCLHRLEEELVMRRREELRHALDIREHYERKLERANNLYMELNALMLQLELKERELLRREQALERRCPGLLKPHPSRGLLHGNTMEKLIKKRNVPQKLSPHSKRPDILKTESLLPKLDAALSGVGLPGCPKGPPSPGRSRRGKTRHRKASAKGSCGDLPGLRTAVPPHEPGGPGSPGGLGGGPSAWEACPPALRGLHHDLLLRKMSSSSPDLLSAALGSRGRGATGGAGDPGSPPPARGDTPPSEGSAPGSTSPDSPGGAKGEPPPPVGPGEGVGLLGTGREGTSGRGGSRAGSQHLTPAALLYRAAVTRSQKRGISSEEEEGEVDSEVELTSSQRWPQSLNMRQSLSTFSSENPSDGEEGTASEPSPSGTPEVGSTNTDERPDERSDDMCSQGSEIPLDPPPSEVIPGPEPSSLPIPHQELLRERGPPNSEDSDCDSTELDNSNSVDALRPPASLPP
Cyclin-dependent kinase 5 (Homo sapiens), sequence (Q00535 whole entry, looked up): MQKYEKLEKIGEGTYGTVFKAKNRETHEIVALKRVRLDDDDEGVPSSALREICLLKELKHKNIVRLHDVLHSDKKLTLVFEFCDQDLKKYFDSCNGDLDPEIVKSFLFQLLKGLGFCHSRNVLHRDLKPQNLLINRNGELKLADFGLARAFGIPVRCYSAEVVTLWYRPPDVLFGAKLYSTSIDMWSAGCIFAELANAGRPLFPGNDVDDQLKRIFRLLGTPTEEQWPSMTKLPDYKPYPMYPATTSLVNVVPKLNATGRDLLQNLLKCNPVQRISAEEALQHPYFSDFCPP
Ribosomal protein S6 kinase alpha-3 (Homo sapiens), sequence (P51812 whole entry, the tested form may be a part): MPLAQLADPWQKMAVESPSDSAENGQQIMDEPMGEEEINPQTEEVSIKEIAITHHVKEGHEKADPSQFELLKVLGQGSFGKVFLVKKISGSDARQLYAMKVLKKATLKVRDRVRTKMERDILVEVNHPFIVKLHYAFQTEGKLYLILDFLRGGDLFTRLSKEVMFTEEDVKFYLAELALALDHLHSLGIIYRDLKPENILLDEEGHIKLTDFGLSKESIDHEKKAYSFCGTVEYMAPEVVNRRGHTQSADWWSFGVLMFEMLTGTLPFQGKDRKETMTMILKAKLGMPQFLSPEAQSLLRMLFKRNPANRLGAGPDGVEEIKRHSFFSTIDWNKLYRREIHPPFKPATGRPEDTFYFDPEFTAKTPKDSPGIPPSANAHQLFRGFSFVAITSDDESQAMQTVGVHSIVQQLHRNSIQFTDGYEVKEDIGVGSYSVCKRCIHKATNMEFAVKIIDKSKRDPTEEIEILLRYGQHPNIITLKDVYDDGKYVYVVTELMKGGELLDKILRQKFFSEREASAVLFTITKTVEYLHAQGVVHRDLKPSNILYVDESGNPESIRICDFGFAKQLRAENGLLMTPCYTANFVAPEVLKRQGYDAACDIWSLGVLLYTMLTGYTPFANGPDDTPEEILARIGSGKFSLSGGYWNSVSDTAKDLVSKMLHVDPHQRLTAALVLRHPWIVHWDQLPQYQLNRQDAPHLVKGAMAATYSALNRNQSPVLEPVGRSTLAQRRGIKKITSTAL
Fibroblast growth factor receptor 1 (Homo sapiens), sequence (P11362 22-822 limits assumed): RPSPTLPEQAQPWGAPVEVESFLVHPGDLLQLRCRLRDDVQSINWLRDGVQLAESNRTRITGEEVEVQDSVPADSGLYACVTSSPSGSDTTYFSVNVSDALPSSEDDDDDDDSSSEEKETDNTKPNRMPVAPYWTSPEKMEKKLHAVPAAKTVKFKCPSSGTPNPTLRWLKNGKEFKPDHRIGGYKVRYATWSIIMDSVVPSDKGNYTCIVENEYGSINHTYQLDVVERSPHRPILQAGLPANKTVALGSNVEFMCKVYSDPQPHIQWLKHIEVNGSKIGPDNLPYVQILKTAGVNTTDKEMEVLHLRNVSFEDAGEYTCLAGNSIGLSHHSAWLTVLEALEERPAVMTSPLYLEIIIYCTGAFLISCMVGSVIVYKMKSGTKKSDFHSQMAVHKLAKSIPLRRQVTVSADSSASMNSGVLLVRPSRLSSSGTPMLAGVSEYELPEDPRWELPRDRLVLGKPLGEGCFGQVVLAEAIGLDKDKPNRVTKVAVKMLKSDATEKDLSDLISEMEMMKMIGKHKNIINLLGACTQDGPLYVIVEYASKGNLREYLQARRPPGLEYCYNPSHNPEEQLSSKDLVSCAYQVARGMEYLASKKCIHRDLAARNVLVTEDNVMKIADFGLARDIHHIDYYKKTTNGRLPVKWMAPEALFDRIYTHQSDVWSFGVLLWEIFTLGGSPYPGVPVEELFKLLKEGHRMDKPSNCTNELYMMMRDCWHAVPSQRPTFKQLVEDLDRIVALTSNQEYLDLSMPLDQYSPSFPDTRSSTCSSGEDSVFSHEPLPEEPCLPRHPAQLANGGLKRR
BDNF/NT-3 growth factors receptor (Homo sapiens), sequence (Q16620 32-822 limits assumed): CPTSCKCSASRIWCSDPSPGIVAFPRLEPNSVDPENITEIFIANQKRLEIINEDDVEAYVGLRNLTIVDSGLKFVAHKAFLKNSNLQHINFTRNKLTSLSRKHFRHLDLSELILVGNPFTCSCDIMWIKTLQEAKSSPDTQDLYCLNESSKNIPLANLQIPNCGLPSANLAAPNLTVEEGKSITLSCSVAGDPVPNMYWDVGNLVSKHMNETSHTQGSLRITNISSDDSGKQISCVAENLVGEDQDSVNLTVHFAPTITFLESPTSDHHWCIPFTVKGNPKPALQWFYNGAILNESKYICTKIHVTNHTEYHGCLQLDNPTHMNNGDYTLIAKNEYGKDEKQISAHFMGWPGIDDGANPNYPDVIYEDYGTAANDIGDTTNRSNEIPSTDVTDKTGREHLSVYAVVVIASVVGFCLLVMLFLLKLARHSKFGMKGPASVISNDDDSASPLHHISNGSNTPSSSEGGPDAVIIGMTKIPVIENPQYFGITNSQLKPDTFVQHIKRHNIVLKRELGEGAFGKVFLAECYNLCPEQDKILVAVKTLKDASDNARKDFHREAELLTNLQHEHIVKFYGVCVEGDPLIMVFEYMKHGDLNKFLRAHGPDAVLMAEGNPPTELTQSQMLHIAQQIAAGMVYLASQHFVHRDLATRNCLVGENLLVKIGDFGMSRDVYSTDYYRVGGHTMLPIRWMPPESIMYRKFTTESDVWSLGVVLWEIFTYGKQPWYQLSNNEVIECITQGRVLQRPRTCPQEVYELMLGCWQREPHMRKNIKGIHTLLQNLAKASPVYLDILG

Row | Structure (SMILES) | Activity [1] | Activity [2] | Activity [3] | Activity [4] | Activity [5] | Activity [6] | Activity [7] | Activity [8] | Activity [9] | Activity [10] | Activity [11] | Activity [12] | Activity [13] | Activity [14]
1 | COc1cc2nc(C)nc(N[C@H](C)c3cccc(-c4cn[nH]c4)c3)c2cc1OC | 100% |  |  |  |  |  |  |  |  |  |  |  |  | 
2 | COc1cc2ncnc(N[C@H](C)c3cccc4ccccc34)c2cc1OC |  | 51% | 90% | 100% | 89% | 61% | 100% | 83% | 96% | 93% | 79% | 64% | 92% | 89%
